Assay results: patent US11918582B2 (RAPT Therapeutics, Inc., priority 2021, dated 2024)

target: T1, human HPK1 (MAP4K1) (Homo sapiens, UniProt Q92918); test: Biochemical assay for activity against HPK1 (ADP-Glo, MBP substrate); conditions: recombinant human HPK1 kinase domain, 1 nM enzyme, ADP-Glo luminescence
T1 construct: Recombinant human HPK1 kinase domain was obtained from ThermoFisher (Cat. #PV6357) and SignalChem (Cat. #M23-11G); purchased ThermoFisher; SignalChem PV6357; M23-11G
T1 sequence (Q92918 17-274 limits assumed): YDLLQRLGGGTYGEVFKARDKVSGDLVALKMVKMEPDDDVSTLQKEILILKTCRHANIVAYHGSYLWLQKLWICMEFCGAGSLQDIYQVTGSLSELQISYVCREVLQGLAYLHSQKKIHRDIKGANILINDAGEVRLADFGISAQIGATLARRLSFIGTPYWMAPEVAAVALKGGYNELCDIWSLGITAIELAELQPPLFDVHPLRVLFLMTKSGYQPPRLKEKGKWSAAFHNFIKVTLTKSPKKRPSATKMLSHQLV
Procedure, shortened: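 IC50s come from ADP-Glo luminescence after a 2 h room-temperature reaction phosphorylating MBP in the presence of ATP. Compound was first preincubated 15 min with 1 nM HPK1 kinase domain, human recombinant. Buffer: 50 mM HEPES pH 7.5, 150 mM NaCl, 3 mM TCEP, 10 mM MgCl2, 0.005% Tween-20, 0.01% BSA.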

IC50	SMILES
< 100 nM	COc1cc2c(cc1Nc1ncc3c(C)nn([C@H]4CC[C@H](CO)CC4)c3n1)CN(C)CC2 [Example 68, trans-[4-[6-[(6-methoxy-2-methyl-3,4-dihydro-1H-isoquinolin-7-yl)amino]-3-methyl-pyrazolo[3,4-d]pyrimidin-1-yl]cyclohexyl]methanol]
< 100 nM	COc1cc2c(cc1Nc1ncc3cnn([C@H]4CC[C@H](NC(C)=O)CC4)c3n1)CN(C)CC2 [Example 69, trans-N-[4-[6-[(6-methoxy-2-methyl-3,4-dihydro-1H-isoquinolin-7-yl)amino]pyrazolo[3,4-d]pyrimidin-1-yl]cyclohexyl]acetamide]
< 100 nM	COc1cc2c(cc1Nc1ncc3cnn([C@H]4C[C@](C)(C(=O)OC)C4)c3n1)CN(C)CC2 [Example 70, trans-methyl 3-[6-[(6-methoxy-2-methyl-3,4-dihydro-1H-isoquinolin-7-yl)amino]pyrazolo[3,4-d]pyrimidin-1-yl]-1-methyl-cyclobutanecarboxylate]
< 100 nM	COc1cc2c(cc1Nc1ncc3cnn([C@H]4C[C@](C)(C(=O)O)C4)c3n1)CN(C)CC2 [Example 71, 3-[6-[(6-methoxy-2-methyl-3,4-dihydro-1H-isoquinolin-7-yl)amino]pyrazolo[3,4-d]pyrimidin-1-yl]-1-methyl-cyclobutanecarboxylic acid]
< 100 nM	CNC(=O)[C@]1(C)C[C@@H](n2ncc3cnc(Nc4cc5c(cc4OC)CCN(C)C5)nc32)C1 [Example 73, trans-3-[6-[(6-methoxy-2-methyl-3,4-dihydro-1H-isoquinolin-7-yl)amino]pyrazolo[3,4-d]pyrimidin-1-yl]-N,1-methyl-cyclobutanecarboxamide]
< 100 nM	COc1cc2c(cc1Nc1ncc3cnn([C@H]4CC[C@H](NC(=O)CO)CC4)c3n1)CN(C)CC2 [Example 74, trans-2-hydroxy-N-[4-[6-[(6-methoxy-2-methyl-3,4-dihydro-1H-isoquinolin-7-yl)amino]pyrazolo[3,4-d]pyrimidin-1-yl]cyclohexyl]acetamide]
< 100 nM	COc1cc2c(cc1Nc1ncc3cnn([C@H]4C[C@](C)(CO)C4)c3n1)CN(C)CC2 [Example 76, trans-[3-[6-[(6-methoxy-2-methyl-3,4-dihydro-1H-isoquinolin-7-yl)amino]pyrazolo[3,4-d]pyrimidin-1-yl]-1-methyl-cyclobutyl]methanol]
< 100 nM	COc1cc2c(cc1Nc1ncc3cnn(C4CC(CO)(CO)C4)c3n1)CN(C)CC2 [Example 77, [1-(hydroxymethyl)-3-[6-[(6-methoxy-2-methyl-3,4-dihydro-1H-isoquinolin-7-yl)amino]pyrazolo[3,4-d]pyrimidin-1-yl]cyclobutyl]dimethanol]
< 100 nM	COc1cc2c(cc1Nc1ncc3c(C)nn([C@H]4CC[C@@H](CO)CC4)c3n1)CN(C)CC2 [Example 78, cis-[4-[6-[(6-methoxy-2-methyl-3,4-dihydro-1H-isoquinolin-7-yl)amino]-3-methyl-pyrazolo[3,4-d]pyrimidin-1-yl]cyclohexyl]methanol]
< 100 nM	COc1cc2c(cc1Nc1ncc3cnn([C@H]4CC[C@H](NS(C)(=O)=O)CC4)c3n1)CN(C)CC2 [Example 79, trans-N-[4-[6-[(6-methoxy-2-methyl-3,4-dihydro-1H-isoquinolin-7-yl)amino]pyrazolo[3,4-d]pyrimidin-1-yl]cyclohexyl]methanesulfonamide]
< 100 nM	COC(=O)N[C@H]1CC[C@H](n2ncc3cnc(Nc4cc5c(cc4OC)CCN(C)C5)nc32)CC1 [Example 80, trans-methyl N-[4-[6-[(6-methoxy-2-methyl-3,4-dihydro-1H-isoquinolin-7-yl)amino]pyrazolo[3,4-d]pyrimidin-1-yl]cyclohexyl]carbamate]
< 100 nM	COc1cc2c(cc1Nc1ncc3cnn(C4CC5(CCN(C(C)=O)CC5)C4)c3n1)CN(C)CC2 [Example 81, 1-(2-(6-((6-methoxy-2-methyl-1,2,3,4-tetrahydroisoquinolin-7-yl)amino)-1H-pyrazolo[3,4-d]pyrimidin-1-yl)-7-azaspiro[3.5]nonan-7-yl)ethan-1-one]
< 100 nM	COc1cc2c(cc1Nc1ncc3cnn(C4CC5(CCN(S(C)(=O)=O)CC5)C4)c3n1)CN(C)CC2 [Example 82, 6-methoxy-2-methyl-N-[1-(7-methylsulfonyl-7-azaspiro[3.5]nonan-2-yl)pyrazolo[3,4-d]pyrimidin-6-yl]-3,4-dihydro-1H-isoquinolin-7-amine]
< 100 nM	COc1cc2c(cc1Nc1ncc3cnn(CC[C@@H](C)O)c3n1)CN(C)CC2 [Example 83, (2R)-4-[6-[(6-methoxy-2-methyl-3,4-dihydro-1H-isoquinolin-7-yl)amino]pyrazolo[3,4-d]pyrimidin-1-yl]butan-2-ol]
< 100 nM	COc1cc2c(cc1Nc1ncc3cnn(CC[C@H](C)O)c3n1)CN(C)CC2 [Example 84, (S)-4-(6-((6-methoxy-2-methyl-1,2,3,4-tetrahydroisoquinolin-7-yl)amino)-1H-pyrazolo[3,4-d]pyrimidin-1-yl)butan-2-ol]
< 100 nM	COc1cc2c(cc1Nc1ncc3cnn(CCC(C)(C)O)c3n1)CN(C)CC2 [Example 85, 4-[6-[(6-methoxy-2-methyl-3,4-dihydro-1H-isoquinolin-7-yl)amino]pyrazolo[3,4-d]pyrimidin-1-yl]-2-methyl-butan-2-ol]
< 100 nM	COc1cc2c(cc1Nc1ncc3cnn(CCC(N)=O)c3n1)CN(C)CC2 [Example 86, 3-[6-[(6-methoxy-2-methyl-3,4-dihydro-1H-isoquinolin-7-yl)amino]pyrazolo[3,4-d]pyrimidin-1-yl]210ropenamide]
< 100 nM	COc1cc2c(cc1Nc1ncc3cnn(CCNC(C)=O)c3n1)CN(C)CC2 [Example 87, N-[2-[6-[(6-methoxy-2-methyl-3,4-dihydro-1H-isoquinolin-7-yl)amino]pyrazolo[3,4-d]pyrimidin-1-yl]ethyl]acetamide]
< 100 nM	COc1cc2c(cc1Nc1ncc3cnn(CCNS(C)(=O)=O)c3n1)CN(C)CC2 [Example 88, N-[2-[6-[(6-methoxy-2-methyl-3,4-dihydro-1H-isoquinolin-7-yl)amino]pyrazolo[3,4-d]pyrimidin-1-yl]ethyl]methanesulfonamide]
100 to 250 nM	COC(=O)NCCn1ncc2cnc(Nc3cc4c(cc3OC)CCN(C)C4)nc21 [Example 89, methyl N-[2-[6-[(6-methoxy-2-methyl-3,4-dihydro-1H-isoquinolin-7-yl)amino]pyrazolo[3,4-d]pyrimidin-1-yl]ethyl]carbamate]
< 100 nM	COc1cc2c(cc1Nc1ncc3c(C)nn(CC[C@H](C)O)c3n1)CN(C)CC2 [Example 90, (2S)-4-[6-[(6-methoxy-2-methyl-3,4-dihydro-1H-isoquinolin-7-yl)amino]-3-methyl-pyrazolo[3,4-d]pyrimidin-1-yl]butan-2-ol]
100 to 250 nM	COc1cc2c(cc1Nc1ncc3cnn(CCN(C)C(C)=O)c3n1)CN(C)CC2 [Example 91, N-[2-[6-[(6-methoxy-2-methyl-3,4-dihydro-1H-isoquinolin-7-yl)amino]pyrazolo[3,4-d]pyrimidin-1-yl]ethyl]-N-methyl-acetamide]
100 to 250 nM	COc1cc2c(cc1Nc1ncc3cnn(CCN(C)S(C)(=O)=O)c3n1)CN(C)CC2 [Example 92, N-[2-[6-[(6-methoxy-2-methyl-3,4-dihydro-1H-isoquinolin-7-yl)amino]pyrazolo[3,4-d]pyrimidin-1-yl]ethyl]-N-methyl-methanesulfonamide]
< 100 nM	COc1cc2c(cc1Nc1ncc3cnn(C[C@H](C)NC(C)=O)c3n1)CN(C)CC2 [Example 93, N-[(1S)-2-[6-[(6-methoxy-2-methyl-3,4-dihydro-1H-isoquinolin-7-yl)amino]pyrazolo[3,4-d]pyrimidin-1-yl]-1-methyl-ethyl]acetamide]
100 to 250 nM	COc1cc2c(cc1Nc1ncc3cnn(C[C@H](C)NS(C)(=O)=O)c3n1)CN(C)CC2 [Example 94, N-[(1S)-2-[6-[(6-methoxy-2-methyl-3,4-dihydro-1H-isoquinolin-7-yl]amino]pyrazolo[3,4-d]pyrimidin-1-yl]-1-methyl-ethyl]methanesulfonamide]
< 100 nM	COC(=O)N[C@@H](C)Cn1ncc2cnc(Nc3cc4c(cc3OC)CCN(C)C4)nc21 [Example 95, methyl N-[(1S)-2-[6-[(6-methoxy-2-methyl-3,4-dihydro-1H-isoquinolin-7-yl)amino]pyrazolo[3,4-d]pyrimidin-1-yl]-1-methyl-ethyl]carbamate]
< 100 nM	COc1cc2c(cc1Nc1ncc3cnn(CCCO)c3n1)CN(C)CC2 [Example 96, 3-[6-[(6-methoxy-2-methyl-3,4-dihydro-1H-isoquinolin-7-yl)amino]pyrazolo[3,4-d]pyrimidin-1-yl]propan-1-ol]
100 to 250 nM	COc1cc2c(cc1Nc1ncc3cnn(C[C@@H](C)NC(C)=O)c3n1)CN(C)CC2 [Example 97, N-[(1R)-2-[6-[(6-methoxy-2-methyl-3,4-dihydro-1H-isoquinolin-7-yl)amino]pyrazolo[3,4-d]pyrimidin-1-yl]-1-methyl-ethyl]acetamide]
100 to 250 nM	COC(=O)N[C@H](C)Cn1ncc2cnc(Nc3cc4c(cc3OC)CCN(C)C4)nc21 [Example 98, methyl N-[(1R)-2-[6-[(6-methoxy-2-methyl-3,4-dihydro-1H-isoquinolin-7-yl)amino]pyrazolo[3,4-d]pyrimidin-1-yl]-1-methyl-ethyl]carbamate]
